Assay results reported in patent US9353089B2, “Compositions and methods for the treatment of malaria” (Saint Louis University, priority 2013, dated 2016).

test system: Plasmodium falciparum 3D7 (CQ-sensitive); test: In vitro antimalarial assay (malaria SYBR Green I-based fluorescence, MSF), 3D7; assay type: cell-based; conditions: 3D7, Table 11, read-out: Pf 3D7 IC50
Experimental: Stock solutions of each test drug were prepared in DMSO at a concentration of 20 mM. The drug solutions were serially diluted with culture medium and distributed to asynchronous parasite cultures on 96-well plates in quadruplicate in a total volume of 100 μL to achieve 0.5% parasitemia with a 2% hematocrit in a total volume of 100 pt. […] After incubation, 100 μL of lysis buffer with 0.2 μL/mL SYBR Green I was added to each well.
Antimalarial potency of compounds was determined by this technique for both Plasmodium falciparum 3D7 (CQ-sensitive) and Dd2 (multi-drug resistant) strains.

IC50 | Compound
1060 nM | N=C1NC(c2cccc(Cl)c2)(c2cccc(Cl)c2)C(=O)N1C1CCCCC1 [Example 267, 5,5-bis(3-chlorophenyl)-3-cyclohexyl-2-iminoimidazolidin-4-one]
318 nM | COc1cccc(C2(c3cccc(-c4ccncc4)c3)NC(=N)N(C3CCCCC3)C2=O)c1 (centres unmarked) [Example 225, 3-cyclohexyl-2-imino-5-(3-methoxy-phenyl)-5-[3-(pyridin-4-yl)phenyl]imidazolidin-4-one]
533 nM | Cc1cccc(C2(c3cccc(C)c3)NC(=N)N(C3CCCCC3)C2=O)c1 [Example 237, 3-cyclohexyl-2-imino-5,5-bis(3-methylphenyl)-imidazolidin-4-one]

same assay, conditions: 3D7, Table 13, read-out: 3D7 IC50

Compound | IC50
N=C1NC(c2ccc(Cl)cc2)(C2CC2)C(=O)N1C1CCCCC1 (centres unmarked) [Example 577, 5-(4-chlorophenyl)-3-cyclohexyl-5-cyclopropyl-2-iminoimidazolidin-4-one] | 1670 nM
COc1cccc(C2(C3CC3)NC(=N)N(C3CCOCC3)C2=O)c1 (centres unmarked) [Example 499, 5-cyclopropyl-2-imino-5-(3-methoxyphenyl)-3-(tetrahydro-2H-pyran-4-yl)imidazolidin-4-one] | 1390 nM
CC(C)COc1ccc(C2(c3ccc(OCC(C)C)cc3)NC(=N)N(C3CCOCC3)C2=O)cc1 [Example 390, 2-imino-5,5-bis[4-(2-methylpropoxy)phenyl]-3-(oxan-4-yl)imidazolidin-4-one] | 4080 nM
COc1ccc(C2(c3ccc(OC)cc3)NC(=N)N(Cc3cccc(C(F)(F)F)c3)C2=O)cc1 [Example 249, 2-imino-5,5-bis(4-methoxyphenyl)-3-{[3-(trifluoromethyl)-phenyl]methyl} imidazolidin-4-one] | 1520 nM
N=C1NC(c2ccc(F)c(F)c2)(C2CC2)C(=O)N1C1CCOCC1 (centres unmarked) [Example 498, 5-cyclopropyl-5-(3,4-difluorophenyl)-2-imino-3-(tetrahydro-2H-pyran-4-yl)imidazolidin-4-one] | 1290 nM
COc1ccc(C2(c3ccc(OC)cc3)NC(=N)N(Cc3cc(C)ccc3C)C2=O)cc1 [Example 272, 3-[(2,5-dimethylphenyl)-methyl]-2-imino-5,5-bis(4-methoxyphenyl) imidazolidin-4-one] | 976 nM
COc1cc(C2(C3CCCCC3)NC(=N)N(C3CCOCC3)C2=O)ccc1Cl (centres unmarked) [Example 501, 5-(4-chloro-3-methoxyphenyl)-5-cyclohexyl-2-imino-3-(tetrahydro-2H-pyran-4-yl)imidazolidin-4-one] | 1540 nM
C#Cc1cccc(-c2cccc(C3(C4CC4)NC(=N)N(C4CCOCC4)C3=O)c2)c1 (centres unmarked) [Example 497, 5-cyclopropyl-5-(3′-ethynyl-[1,1′-biphenyl]-3-yl)-2-imino-3-(tetrahydro-2H-pyran-4-yl)imidazolidin-4-one] | 1150 nM
CC(C)COc1cccc(C2(c3cccc(OCC(C)C)c3)NC(=N)N(C3CCOCC3)C2=O)c1 [Example 389, 2-imino-5,5-bis[3-(2-methylpropoxy)phenyl]-3-(oxan-4-yl)imidazolidin-4-one] | > 5000 nM
N=C1NC(c2ccccc2Cl)(C2CC2)C(=O)N1C1CCOCC1 (centres unmarked) [Example 500, 5-(2-chlorphenyl)-5-cyclopropyl-2-imino-3-(tetrahydro-2H-pyran-4-yl)imidazolidin-4-one] | 2360 nM
COc1ccc(C2(c3ccc(OC)cc3)NC(=N)N(Cc3ccc(Cl)cc3)C2=O)cc1 [Example 232, 3-[(4-chlorophenyl)-methyl]-2-imino-5,5-bis(4-methoxyphenyl)-imidazolidin-4-one] | 1270 nM
N=C1NC(c2cccc(Cl)c2)(c2cccc(Cl)c2)C(=O)N1C1CCCCC1 [Example 267, 5,5-bis(3-chlorophenyl)-3-cyclohexyl-2-iminoimidazolidin-4-one] | 1060 nM
N#Cc1cccc(-c2cccc(C3(C4CCCCC4)NC(=N)N(C4CCOCC4)C3=O)c2)c1 (centres unmarked) [Example 492, 3′-(4-cyclohexyl-2-imino-5-oxo-1-(tetrahydro-2H-pyran-4-yl)imidazolidin-4-yl)-[1,1′-biphenyl]-3-carbonitrile] | 1110 nM

Other lines, results leading:

IC50 | Compound
970 nM | N=C1NC(c2cccc(-c3cncc(Cl)c3)c2)(C2CC2)C(=O)N1C1CCCCC1 (centres unmarked) [Example 514, 5-(3-(5-chloropyridin-3-yl)phenyl)-3-cyclohexyl-5-cyclopropyl-2-iminoimidazolidin-4-one]
795 nM | COc1ccc(C2(c3ccc(OC)cc3)NC(=N)N(Cc3ccc(C)cc3)C2=O)cc1 [Example 231, 2-imino-5,5-bis(4-methoxyphenyl)-3-[(4-methylphenyl)-methyl]imidazolidin-4-one]
930 nM | N=C1NC(c2cccc(Cl)c2)(C2CC2)C(=O)N1C1CCOCC1 (centres unmarked) [Example 495, 5-(3-chlorophenyl)-5-cyclopropyl-2-imino-3-(tetrahydro-2H-pyran-4-yl)imidazolidin-4-one]
657 nM | COc1cccc(C2(c3cccc(-c4ccccn4)c3)NC(=N)N(C3CCCCC3)C2=O)c1 (centres unmarked) [Example 227, 3-cyclohexyl-2-imino-5-(3-methoxyphenyl)-5-[3-(pyridin-2-yl)phenyl]-imidazolidin-4-one]
515 nM | COc1ccc(C2(C3CC3)NC(=N)N(C3CCOCC3)C2=O)cc1-c1cccnc1 (centres unmarked) [Example 490, 5-cyclopropyl-2-imino-5-(4-methoxy-3-(pyridin-3-yl)phenyl)-3-(tetrahydro-2H-pyran-4-yl)imidazolidin-4-one]
724 nM | COc1ccc(C2(c3ccc(OC)cc3)NC(=N)N(C3CCC(C)CC3)C2=O)cc1 (centres unmarked) [Example 270, 2-imino-5,5-bis(4-methoxyphenyl)-3-(4-methylcyclohexyl)imidazolidin-4-one]
381 nM | COc1ccc(C2(c3ccc(OC)cc3)NC(=N)N(Cc3cccc(C)c3)C2=O)cc1 [Example 253, 2-imino-5,5-bis(4-methoxyphenyl)-3-[(3-methylphenyl)-methyl]imidazolidin-4-one]
850 nM | N=C1NC(c2ccc(O)cc2)(c2ccc(O)cc2)C(=O)N1C1CCCCC1 [Example 547, 3-cyclohexyl-5,5-bis(4-hydroxyphenyl)-2-iminoimidazolidin-4-one]
280 nM | N=C1NC(c2cccc(-c3cncc(Cl)c3)c2)(C2CCCCC2)C(=O)N1C1CCOCC1 (centres unmarked) [Example 516, 5-(3-(5-chloropyridin-3-yl)phenyl)-5-cyclohexyl-2-imino-3-(tetrahydro-2H-pyran-4-yl)imidazolidin-4-one]
684 nM | COc1ccc(C2(c3ccc(OC)cc3)NC(=N)N(Cc3cccc(Cl)c3)C2=O)cc1 [Example 235, 3-[(3-chlorophenyl)-methyl]-2-imino-5,5-bis(4-methoxyphenyl)-imidazolidin-4-one]
293 nM | N#Cc1cccc(-c2cccc(C3(C4CC4)NC(=N)N(C4CCOCC4)C3=O)c2)c1 (centres unmarked) [Example 414, 3′-(4-cyclopropyl-2-imino-5-oxo-1-(tetrahydro-2H-pyran-4-yl)imidazolidin-4-yl)-[1,1′-biphenyl]-3-carbonitrile]
318 nM | COc1cccc(C2(c3cccc(-c4ccncc4)c3)NC(=N)N(C3CCCCC3)C2=O)c1 (centres unmarked) [Example 225, 3-cyclohexyl-2-imino-5-(3-methoxy-phenyl)-5-[3-(pyridin-4-yl)phenyl]imidazolidin-4-one]
533 nM | Cc1cccc(C2(c3cccc(C)c3)NC(=N)N(C3CCCCC3)C2=O)c1 [Example 237, 3-cyclohexyl-2-imino-5,5-bis(3-methylphenyl)-imidazolidin-4-one]
554 nM | COc1ccc(CN2C(=N)NC(c3ccc(OC)cc3)(c3ccc(OC)cc3)C2=O)cc1 [Example 233, 2-imino-5,5-bis(4-methoxyphenyl)-3-[(4-methoxyphenyl)-methyl]imidazolidin-4-one]
350 nM | N=C1NC(c2ccc(Cl)cc2)(C2CC2)C(=O)N1C1CCOCC1 (centres unmarked) [Example 496, 5-(4-chlorophenyl)-5-cyclopropyl-2-imino-3-(tetrahydro-2H-pyran-4-yl)imidazolidin-4-one]
640 nM | COc1ccc(C2(C3CCCC3)NC(=N)N(C3CCCCC3)C2=O)cc1 (centres unmarked) [Example 493, 3-cyclohexyl-5-cyclopentyl-2-imino-5-(4-methoxyphenyl)imidazolidin-4-one]
